Reference: PMC9412300, “In Vitro Evaluation and Mitigation of Niclosamide’s Liabilities as a COVID-19 Treatment” (Vaccines, 2022)
Read-outs that look alike come from different tables or passages of the source.

What was measured:
[1] = Cell viability (cell count per well) in H1437, 72 h compound exposure; format: cell-based, human; details: human
in vitro [2] = details: African green monkey
[3] = system: SARS-CoV-2 WA1 (wildtype); test: microbe, parasite or virus in culture; format: cell-based
[4] = system: SARS-CoV-2 B.1.1.7 (alpha); test: microbe, parasite or virus in culture; format: cell-based
[5] = Cell viability in VeroE6, shortened 24 h infection assay; details: African green monkey
H1437 cells = test: Cell viability (cell count per well) in H1437, 72 h compound exposure; format: cell-based, human; details: H1437 infected with WA1, 72 h compound exposure
[6] = system: SARS-CoV-2 B.1.351 (beta); test: microbe, parasite or virus in culture; format: cell-based; details: Severe acute respiratory syndrome coronavirus 2, Vero C1008; read-out: IC50 against B.1.351, 24 h infection
[7] = system: SARS-CoV-2 B.1.617.2 (delta); test: microbe, parasite or virus in culture; format: cell-based; details: Severe acute respiratory syndrome coronavirus 2, Vero C1008; read-out: IC50 against B.1.617.2, 24 h infection
SARS-CoV-2 P.1 (gamma) = test: microbe, parasite or virus in culture; format: cell-based; details: Severe acute respiratory syndrome coronavirus 2, Vero C1008; read-out: IC50 against P.1, 24 h infection
[8] = set-up: method as in PMID 26848771, PMID 31040114; details: cited from earlier work
[9] = set-up: method as in PMID 26848771, PMID 31040114; details: cited from earlier work; remark: listed apart in the source
[10] = set-up: method as in PMID 33842908; details: phase 1, 50 mg over 2.5 days inhalable/intranasal; cited from earlier work
SARS-CoV-2 = system: SARS-CoV-2; set-up: method as in PMID 35138402; details: phase 2, 2 g orally for 7 days; cited from earlier work
SARS-CoV = details: cited from earlier work
[11] = rats, oral administration at 5 mg/kg; cited from earlier work
in vitro [12] = details: African green monkey; remark: listed apart in the source
[13] = H1437 cells infected with SARS-CoV-2 WA1, H1437 infected with WA1, 72 h compound exposure, read-out: H1437 (WA1) CC50
[14] = Severe acute respiratory syndrome coronavirus 2, Vero C1008, 24 h; read-out: IC50 WA1 (protonophores)
[15] = Severe acute respiratory syndrome coronavirus 2, Vero C1008, 24 h; read-out: IC50 B.1.1.7 (protonophores)

| Structure (SMILES) | CC50 (H1437 cells) [µM] | CC50 (VeroE6 cells) [µM] | also measured |
| --- | --- | --- | --- |
| N#Cc1ccc(NC(=O)c2cc(Cl)ccc2O)c(Cl)c1 [Compound 24] | – | – | CC50 at 72 h [1, 13]: 0.88 µM; CC50 (in vitro [2]): 4.72 µM |
| O=c1oc2ccccc2c(O)c1Cc1c(O)c2ccccc2oc1=O [Dicumarol, dicumarol] | – | – | IC50 [3, 14]: > 100 µM; IC50 [4, 15]: > 100 µM; CC50 at 25 h [5]: > 100 µM |
| CC(C)(C)c1cc(C(=O)Nc2ccc(NS(C)(=O)=O)cc2Cl)c(O)c(C(C)(C)C)c1 [Compound 18] | > 20 | > 20 | – |
| O=C(Nc1ccc([N+](=O)[O-])cc1Cl)c1cccc(Cl)c1 [Compound 9] | – | – | CC50 at 72 h [1, 13]: > 20 µM; CC50 (in vitro [2]): > 20 µM |
| COC(=O)c1ccc(NC(=O)c2cccc(C(C)(C)C)c2O)c(Cl)c1 [Compound 25] | > 20 | > 20 | – |
| CC(C)(C)c1ccc(O)c(C(=O)Nc2ccc([N+](=O)[O-])cc2Cl)c1 [Compound 11] | – | – | CC50 at 72 h [1, 13]: 1.92 µM; CC50 (in vitro [2]): 3.41 µM |
| COC(=O)c1ccc(NC(=O)c2cc(C3CCCCC3)ccc2O)c(Cl)c1 [Compound 21] | > 20 | > 20 | – |
| COC(=O)c1ccc(NC(=O)c2cc(C(F)(F)F)ccc2O)c(C)c1 [Compound 23] | > 20 | > 20 | – |
| CC(C)(C)c1cccc(C(=O)Nc2ccc(C(=O)O)cc2Cl)c1O [Compound 30] | > 20 | > 20 | – |
| Cc1cc(NC(=O)c2cc(C(C)(C)C)cc(C(C)(C)C)c2O)ccc1C(=O)O [Compound 20] | > 20 | > 20 | – |
| O=C(Nc1ccc(Br)cc1Cl)c1cc(Cl)ccc1O [Compound 34] | 3.62 | 5.47 | – |
| COC(=O)c1ccc(NC(=O)c2cc(C(C)(C)C)ccc2O)c(Cl)c1 [Compound 13] | > 20 | 14.6 | – |
| CC(C)(C)c1cccc(C(=O)Nc2ccc(NS(C)(=O)=O)cc2Cl)c1O [Compound 33] | > 20 | > 20 | – |
| O=C(Nc1ccc([N+](=O)[O-])cc1Cl)c1cc(Cl)ccc1O [Niclosamide] | – | – | CC50 at 72 h ([1]; H1437 cells infected with SARS-CoV-2 B.1.1.7, H1437 infected with B.1.1.7, 72 h compound exposure, read-out: H1437 (B.1.1.7) CC50): 0.438 µM; CC50 at 72 h [1, 13]: 17.1 µM; IC50 [3, 14]: 3.5 µM; IC50 ([3]; Severe acute respiratory syndrome coronavirus 2, Vero C1008; read-out: IC50 against WA1, 24 h infection): 1.66 µM; IC50 [4, 15]: 0.25 µM; IC50 ([4]; Severe acute respiratory syndrome coronavirus 2, Vero C1008; read-out: IC50 against B.1.1.7, 24 h infection): 0.298 µM; IC50 [6]: 0.44 ± 0.021 µM; IC50 [7]: 0.774 ± 0.058 µM; IC50 (SARS-CoV-2 P.1 (gamma)): 0.399 ± 0.034 µM; oral bioavailability [8]: < 10%; water solubility [9]: poor; participants with moderate lung irritation [10]: 59%; effect on the duration of the contagious period of SARS-CoV-2 (SARS-CoV-2): no statistically significant effect; inhibition of SARS-CoV viral replication in vitro (SARS-CoV): low micromolar potency; CC50 (in vitro [2]): 1.05 µM; maximal serum concentration (Cmax) [11]: 354 ± 152 ng/mL; CC50 at 25 h ([5]; VeroE6 cells infected with SARS-CoV-2, CC50 (protonophores), VeroE6, 24 h infection conditions, starting concentration 100 μM): 66 µM |
| Cc1cc(NC(=O)c2cc(C(C)(C)C)cc(C(C)(C)C)c2O)ccc1C(=O)O [Compound 27] | – | > 20 | – |
| O=C(Nc1cc(Cl)cc(Cl)c1O)c1c(O)c(Cl)cc(Cl)c1Cl [Oxyclozanide, oxyclozanide] | – | – | IC50 [3, 14]: 64 µM; IC50 [4, 15]: 20 µM; CC50 at 25 h [5]: > 100 µM |
| O=C(O)c1ccc(NC(=O)c2cc(C3CCCCC3)ccc2O)c(Cl)c1 [Compound 22] | > 20 | > 20 | – |
| Cc1ccc(NC(=O)c2cc(Cl)ccc2O)c(Cl)c1 [Compound 6] | 6.05 | 4.59 | – |

| Structure (SMILES) | CC50 (H1437 cells) [µM] | CC50 (VeroE6 cells) [µM] | also measured |
| --- | --- | --- | --- |
| O=C(Nc1ccccc1Cl)c1cc(Cl)ccc1O [Compound 5] | 18.6 | 8.44 | – |
| CC(C)(C)c1ccc(O)c(C(=O)Nc2ccc(C(=O)O)cc2F)c1 [Compound 15] | > 20 | > 20 | – |
| COc1ccc(O)c(C(=O)Nc2ccc([N+](=O)[O-])cc2Cl)c1 [Compound 4] | 8.94 | 10.1 | – |
| Cc1ccc(O)c(C(=O)Nc2ccc([N+](=O)[O-])cc2Cl)c1 [Compound 3] | 3.06 | 6.28 | – |
| CC(C)(C)c1cc(C(=O)Nc2ccc(C(=O)O)cc2Cl)c(O)c(C(C)(C)C)c1 [Compound 26] | > 20 | > 20 | – |
| CC(C)(C)c1ccc(O)c(C(=O)Nc2ccc(C(=O)O)cc2Cl)c1 [Compound 14] | > 20 | 14.2 | – |
| CC(C)(C)c1cccc(C(=O)Nc2ccc([N+](=O)[O-])cc2Cl)c1O [Compound 31] | 1.11 | 7.21 | – |
| COC(=O)c1ccc(NC(=O)c2cc(Cl)ccc2O)c(Cl)c1 [Compound 7] | – | – | CC50 at 72 h [1, 13]: > 20 µM; CC50 (in vitro [2]): 8.14 µM |
| O=C(O)c1ccc(NC(=O)c2cc(Cl)ccc2O)c(Cl)c1 [Compound 8] | > 20 | > 20 | – |
| COc1ccc(O)c(C(=O)Nc2ccc(C(=O)O)cc2C)c1 [Compound 28] | > 20 | > 20 | – |
| O=C(Nc1ccc([N+](=O)[O-])cc1Cl)c1ccccc1O [Compound 2] | – | – | CC50 at 72 h [1, 13]: 8.4 µM; CC50 (in vitro [2]): 5.59 µM |
| CC(C)(C)c1cccc(C(=O)Nc2ccc(N)cc2Cl)c1O [Compound 32] | > 20 | > 20 | – |
| COc1ccc(O)c(C(=O)Nc2ccc([N+](=O)[O-])cc2Cl)c1 [Compound 12] | 7.53 | 10.3 | – |
| Cc1cc(C(=O)O)ccc1NC(=O)c1cc(C(C)(C)C)ccc1O [Compound 16] | > 20 | > 20 | – |
| CC(C)(C)c1cc(C(=O)Nc2ccc(N)cc2Cl)c(O)c(C(C)(C)C)c1 [Compound 19] | > 20 | 17.6 | – |
| O=[N+]([O-])c1ccc(O)c([N+](=O)[O-])c1 [2,4 DNP] | – | – | IC50 [3, 14]: > 100 µM; IC50 [4, 15]: > 100 µM; CC50 (in vitro [12]): > 100 µM |
| N#CC(C#N)=NNc1ccc(OC(F)(F)F)cc1 [FCCP] | – | – | IC50 ([3]; Severe acute respiratory syndrome coronavirus 2, Vero C1008, 24 h, read-out: IC50 WA1 (protonophores)): 35 µM; IC50 ([4]; Severe acute respiratory syndrome coronavirus 2, Vero C1008, 24 h, read-out: IC50 B.1.1.7 (protonophores)): 13 µM; CC50 at 25 h [5]: 43 µM |
| COc1ccc(NC(=O)c2cc(Cl)ccc2O)c(Cl)c1 [Compound 10] | 18.9 | > 20 | – |
